From ChEMBL document CHEMBL3779848, “Effect of chlorine substituent on cytotoxic activities: Design and synthesis of systematically modified 2,4-diphenyl-5H-indeno[1,2-b]pyridines” (Bioorg Med Chem Lett, 2016)

test system: not listed separately; assay: Potency index, ratio of IC50 for adriamycin to IC50 for test compound for cytotoxicity against human HCT15 cells; format: functional, HCT-15; settings: not given

Row | Compound | Ratio IC50
1 | Oc1cccc(-c2cc(-c3cccc(Cl)c3)nc3c2Cc2ccccc2-3)c1 | 0.03
2 | Oc1ccc(-c2cc(-c3ccccc3)c3c(n2)-c2ccccc2C3)cc1 | 0.61
3 | Oc1cccc(-c2cc(-c3ccc(Cl)cc3)nc3c2Cc2ccccc2-3)c1 | 0.05
4 | Oc1cccc(-c2cc(-c3ccccc3)nc3c2Cc2ccccc2-3)c1 | 0.91
5 | Oc1ccc(-c2cc(-c3cccc(Cl)c3)c3c(n2)-c2ccccc2C3)cc1 | 0.12
6 | Oc1cccc(-c2cc(-c3ccccc3)c3c(n2)-c2ccccc2C3)c1 | 0.45
7 | Oc1ccc(-c2cc(-c3cccc(Cl)c3)nc3c2Cc2ccccc2-3)cc1 | 0.32

molecular target: T1, DNA topoisomerase 1 (Homo sapiens) (UniProt P11387); assay: Inhibition of human recombinant DNA topoisomerase 1 at 20 uM assessed as relaxation of supercoiled DNA pBR322 after 30 mins by Agarose gel electrophoresis; settings: not given
T1 sequence (whole entry): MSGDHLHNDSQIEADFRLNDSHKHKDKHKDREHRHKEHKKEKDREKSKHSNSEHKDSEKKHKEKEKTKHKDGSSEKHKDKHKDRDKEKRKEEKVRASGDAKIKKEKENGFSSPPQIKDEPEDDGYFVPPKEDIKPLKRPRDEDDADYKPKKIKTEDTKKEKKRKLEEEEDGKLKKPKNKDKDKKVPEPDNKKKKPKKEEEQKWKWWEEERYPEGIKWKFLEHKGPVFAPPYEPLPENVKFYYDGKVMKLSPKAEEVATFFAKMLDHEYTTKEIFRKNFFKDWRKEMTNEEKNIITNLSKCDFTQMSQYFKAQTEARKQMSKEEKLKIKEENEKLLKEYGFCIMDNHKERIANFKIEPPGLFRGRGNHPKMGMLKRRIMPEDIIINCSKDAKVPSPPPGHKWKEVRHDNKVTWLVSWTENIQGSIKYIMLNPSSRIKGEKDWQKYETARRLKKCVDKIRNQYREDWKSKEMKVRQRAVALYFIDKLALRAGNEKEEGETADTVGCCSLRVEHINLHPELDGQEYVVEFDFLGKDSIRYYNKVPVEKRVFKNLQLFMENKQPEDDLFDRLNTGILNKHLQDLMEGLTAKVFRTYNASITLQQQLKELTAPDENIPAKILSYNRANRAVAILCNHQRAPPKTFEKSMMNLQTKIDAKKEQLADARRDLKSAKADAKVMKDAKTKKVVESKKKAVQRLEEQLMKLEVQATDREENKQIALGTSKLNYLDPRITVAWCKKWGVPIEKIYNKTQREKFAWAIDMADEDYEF

Row | inhibition [%] | Compound
8 | 2.8 | Oc1ccc(-c2cc(-c3cccc(Cl)c3)c3c(n2)-c2ccccc2C3)cc1

test system: not listed separately; assay: Cytotoxicity against human HCT15 cells after 3 days by CCK8 assay; format: functional, cell-based; settings: HCT-15, 72 h

Row | Compound | IC50 [nM]
9 | Oc1cccc(-c2cc(-c3cccc(Cl)c3)nc3c2Cc2ccccc2-3)c1 | 3090
10 | Oc1ccc(-c2cc(-c3ccccc3)c3c(n2)-c2ccccc2C3)cc1 | 2010
11 | Oc1cccc(-c2cc(-c3ccc(Cl)cc3)nc3c2Cc2ccccc2-3)c1 | 1880
12 | Oc1cccc(-c2cc(-c3ccccc3)nc3c2Cc2ccccc2-3)c1 | 1350
13 | Oc1ccc(-c2cc(-c3cccc(Cl)c3)c3c(n2)-c2ccccc2C3)cc1 | 810
14 | Oc1cccc(-c2cc(-c3ccccc3)c3c(n2)-c2ccccc2C3)c1 | 2710
15 | Oc1ccc(-c2cc(-c3cccc(Cl)c3)nc3c2Cc2ccccc2-3)cc1 | 310

molecular target: DNA topoisomerase 2-alpha (Homo sapiens) (UniProt P11388); assay: Inhibition of human recombinant DNA topoisomerase 2alpha at 100 uM assessed as relaxation of supercoiled DNA pBR322 after 30 mins by Agarose gel electrophoresis; settings: not given
Sequence (P11388 whole entry): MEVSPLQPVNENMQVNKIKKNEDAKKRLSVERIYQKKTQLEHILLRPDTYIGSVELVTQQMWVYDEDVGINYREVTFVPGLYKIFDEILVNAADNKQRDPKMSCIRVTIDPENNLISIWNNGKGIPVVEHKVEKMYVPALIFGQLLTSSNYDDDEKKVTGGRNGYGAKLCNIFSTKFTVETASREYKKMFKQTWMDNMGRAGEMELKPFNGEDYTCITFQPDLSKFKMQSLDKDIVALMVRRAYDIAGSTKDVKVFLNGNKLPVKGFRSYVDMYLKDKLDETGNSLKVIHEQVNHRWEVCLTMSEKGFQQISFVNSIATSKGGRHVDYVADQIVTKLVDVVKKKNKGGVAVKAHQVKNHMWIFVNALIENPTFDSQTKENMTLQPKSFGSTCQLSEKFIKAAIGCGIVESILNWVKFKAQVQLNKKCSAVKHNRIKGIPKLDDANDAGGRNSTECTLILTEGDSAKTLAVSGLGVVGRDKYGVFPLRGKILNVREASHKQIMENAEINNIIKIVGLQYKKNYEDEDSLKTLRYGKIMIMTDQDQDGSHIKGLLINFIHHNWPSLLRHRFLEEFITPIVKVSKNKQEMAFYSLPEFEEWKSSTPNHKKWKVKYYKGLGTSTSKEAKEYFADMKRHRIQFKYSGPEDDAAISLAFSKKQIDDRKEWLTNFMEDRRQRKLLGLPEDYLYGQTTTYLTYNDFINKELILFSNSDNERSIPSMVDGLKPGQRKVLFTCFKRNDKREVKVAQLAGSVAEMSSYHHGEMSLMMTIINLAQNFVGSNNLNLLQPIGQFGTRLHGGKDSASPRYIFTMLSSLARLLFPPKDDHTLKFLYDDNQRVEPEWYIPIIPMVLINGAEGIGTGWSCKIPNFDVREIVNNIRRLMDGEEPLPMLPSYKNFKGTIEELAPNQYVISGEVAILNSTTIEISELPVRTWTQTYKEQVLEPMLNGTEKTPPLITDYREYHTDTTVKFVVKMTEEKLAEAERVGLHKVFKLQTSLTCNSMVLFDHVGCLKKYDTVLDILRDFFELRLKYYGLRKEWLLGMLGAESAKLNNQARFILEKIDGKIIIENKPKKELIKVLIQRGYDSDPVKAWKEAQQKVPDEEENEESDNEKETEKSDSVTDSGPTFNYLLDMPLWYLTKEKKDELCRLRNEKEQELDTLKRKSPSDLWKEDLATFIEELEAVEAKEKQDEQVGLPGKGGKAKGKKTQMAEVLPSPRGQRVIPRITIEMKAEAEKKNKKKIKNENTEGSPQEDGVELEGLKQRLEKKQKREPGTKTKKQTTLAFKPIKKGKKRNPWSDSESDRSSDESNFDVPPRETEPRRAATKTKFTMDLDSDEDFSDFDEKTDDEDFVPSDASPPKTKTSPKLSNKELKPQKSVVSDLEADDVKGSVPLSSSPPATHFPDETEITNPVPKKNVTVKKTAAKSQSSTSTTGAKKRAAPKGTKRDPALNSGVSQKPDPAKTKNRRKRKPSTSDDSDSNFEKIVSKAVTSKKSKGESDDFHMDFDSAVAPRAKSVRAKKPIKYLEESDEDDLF

Row | Compound | inhibition [%]
16 | Oc1cccc(-c2cc(-c3ccc(Cl)cc3)nc3c2Cc2ccccc2-3)c1 | 3.9
17 | Oc1cccc(-c2cc(-c3ccccc3)nc3c2Cc2ccccc2-3)c1 | 70.5
18 | Oc1ccc(-c2cc(-c3cccc(Cl)c3)c3c(n2)-c2ccccc2C3)cc1 | 4.9
19 | Oc1ccc(-c2cc(-c3cccc(Cl)c3)nc3c2Cc2ccccc2-3)cc1 | 3

More lines, now with the values ahead:

Row | inhibition [%] | Compound
20 | 3.2 | Oc1cccc(-c2cc(-c3cccc(Cl)c3)nc3c2Cc2ccccc2-3)c1
21 | 80.6 | Oc1ccc(-c2cc(-c3ccccc3)c3c(n2)-c2ccccc2C3)cc1
22 | 76 | Oc1cccc(-c2cc(-c3ccccc3)c3c(n2)-c2ccccc2C3)c1

test system: HeLa; assay: Potency index, ratio of IC50 for adriamycin to IC50 for test compound for cytotoxicity against human HeLa cells; format: functional; settings: not given

Row | Compound | Ratio IC50
23 | Oc1cccc(-c2cc(-c3cccc(Cl)c3)nc3c2Cc2ccccc2-3)c1 | 0.18
24 | Oc1ccc(-c2cc(-c3ccccc3)c3c(n2)-c2ccccc2C3)cc1 | 0.22
25 | Oc1cccc(-c2cc(-c3ccc(Cl)cc3)nc3c2Cc2ccccc2-3)c1 | 0.12
26 | Oc1cccc(-c2cc(-c3ccccc3)nc3c2Cc2ccccc2-3)c1 | 0.22
27 | Oc1ccc(-c2cc(-c3cccc(Cl)c3)c3c(n2)-c2ccccc2C3)cc1 | 0.22
28 | Oc1cccc(-c2cc(-c3ccccc3)c3c(n2)-c2ccccc2C3)c1 | 0.29
29 | Oc1ccc(-c2cc(-c3cccc(Cl)c3)nc3c2Cc2ccccc2-3)cc1 | 0.16

molecular target: T1, DNA topoisomerase 1 (Homo sapiens); assay: Inhibition of human recombinant DNA topoisomerase 1 at 100 uM assessed as relaxation of supercoiled DNA pBR322 after 30 mins by Agarose gel electrophoresis; settings: not given

Row | Compound | inhibition [%]
30 | Oc1cccc(-c2cc(-c3ccc(Cl)cc3)nc3c2Cc2ccccc2-3)c1 | 0
31 | Oc1cccc(-c2cc(-c3ccccc3)nc3c2Cc2ccccc2-3)c1 | 20.6
32 | Oc1ccc(-c2cc(-c3cccc(Cl)c3)c3c(n2)-c2ccccc2C3)cc1 | 35.5
33 | Oc1ccc(-c2cc(-c3cccc(Cl)c3)nc3c2Cc2ccccc2-3)cc1 | 0

Other lines, results leading:

Row | inhibition [%] | Compound
34 | 0 | Oc1cccc(-c2cc(-c3cccc(Cl)c3)nc3c2Cc2ccccc2-3)c1
35 | 5.2 | Oc1ccc(-c2cc(-c3ccccc3)c3c(n2)-c2ccccc2C3)cc1
36 | 2.3 | Oc1cccc(-c2cc(-c3ccccc3)c3c(n2)-c2ccccc2C3)c1

test system: HeLa; assay: Cytotoxicity against human HeLa cells after 3 days by CCK8 assay; format: functional, cell-based; settings: 72 h

Row | Compound | IC50 [nM]
37 | Oc1cccc(-c2cc(-c3cccc(Cl)c3)nc3c2Cc2ccccc2-3)c1 | 4590
38 | Oc1ccc(-c2cc(-c3ccccc3)c3c(n2)-c2ccccc2C3)cc1 | 3930
39 | Oc1cccc(-c2cc(-c3ccc(Cl)cc3)nc3c2Cc2ccccc2-3)c1 | 6580
40 | Oc1cccc(-c2cc(-c3ccccc3)nc3c2Cc2ccccc2-3)c1 | 4000
41 | Oc1ccc(-c2cc(-c3cccc(Cl)c3)c3c(n2)-c2ccccc2C3)cc1 | 3680
42 | Oc1cccc(-c2cc(-c3ccccc3)c3c(n2)-c2ccccc2C3)c1 | 2990
43 | Oc1ccc(-c2cc(-c3cccc(Cl)c3)nc3c2Cc2ccccc2-3)cc1 | 5040

test system: T47D; assay: Cytotoxicity against human T47D cells after 3 days by CCK8 assay; format: functional, cell-based; settings: 72 h

Row | Compound | IC50 [nM]
44 | Oc1cccc(-c2cc(-c3cccc(Cl)c3)nc3c2Cc2ccccc2-3)c1 | 1320
45 | Oc1ccc(-c2cc(-c3ccccc3)c3c(n2)-c2ccccc2C3)cc1 | 2100
46 | Oc1cccc(-c2cc(-c3ccc(Cl)cc3)nc3c2Cc2ccccc2-3)c1 | 1360
47 | Oc1cccc(-c2cc(-c3ccccc3)nc3c2Cc2ccccc2-3)c1 | 1550
48 | Oc1ccc(-c2cc(-c3cccc(Cl)c3)c3c(n2)-c2ccccc2C3)cc1 | 1630
49 | Oc1cccc(-c2cc(-c3ccccc3)c3c(n2)-c2ccccc2C3)c1 | 3930
50 | Oc1ccc(-c2cc(-c3cccc(Cl)c3)nc3c2Cc2ccccc2-3)cc1 | 1420

test system: T47D; assay: Potency index, ratio of IC50 for adriamycin to IC50 for test compound for cytotoxicity against human T47D cells; format: functional; settings: not given

Row | Compound | Ratio IC50
51 | Oc1cccc(-c2cc(-c3cccc(Cl)c3)nc3c2Cc2ccccc2-3)c1 | 1.11
52 | Oc1ccc(-c2cc(-c3ccccc3)c3c(n2)-c2ccccc2C3)cc1 | 0.63
53 | Oc1cccc(-c2cc(-c3ccc(Cl)cc3)nc3c2Cc2ccccc2-3)c1 | 1.08
54 | Oc1cccc(-c2cc(-c3ccccc3)nc3c2Cc2ccccc2-3)c1 | 0.86
55 | Oc1ccc(-c2cc(-c3cccc(Cl)c3)c3c(n2)-c2ccccc2C3)cc1 | 0.9
56 | Oc1cccc(-c2cc(-c3ccccc3)c3c(n2)-c2ccccc2C3)c1 | 0.34
57 | Oc1ccc(-c2cc(-c3cccc(Cl)c3)nc3c2Cc2ccccc2-3)cc1 | 1.03
